Patent publication US8501809B2, “Inhibitors of α4 mediated cell adhesion” (Mitsubishi Tanabe Pharma Corporation, priority 2000, dated 2013)

Structure (SMILES)	melting point
CCOCc1cc(OC)c(-c2ccc(C[C@H](NC(=O)c3c(Cl)cccc3Cl)C(=O)OCC)cc2)c(OC)c1 [Example 1, N-(2,6-Dichlorobenzoyl)-4-(2,6-dimethoxy-4-ethoxymethylphenyl)-L-phenylalanine ethyl ester]	91 to 94 °C
CCOCc1cc(OC)c(-c2ccc(C[C@H](NC(=O)c3c(Cl)cccc3Cl)C(=O)O)cc2)c(OC)c1 [Example 3, N-(2,6-Dichlorobenzoyl)-4-(2,6-dimethoxy-4-ethoxymethylphenyl)-L-phenylalanine]	196 to 198 °C
COCc1cc(OC)c(-c2ccc(C[C@H](NC(=O)c3c(Cl)cccc3Cl)C(=O)O)cc2)c(OC)c1 [Example 5, N-(2,6-Dichlorobenzoyl)-4-(2,6-dimethoxy-4-methoxymethylphenyl)-L-phenylalanine]	232 to 235 °C
CCCOCc1cc(OC)c(-c2ccc(C[C@H](NC(=O)c3c(Cl)cccc3Cl)C(=O)O)cc2)c(OC)c1 [Example 7, N-(2,6-Dichlorobenzoyl)-4-(2,6-dimethoxy-4-n-propoxymethylphenyl)-L-phenylalanine]	183 to 186 °C
CCOCc1cc(OC)c(-c2ccc(C[C@H](NC(=O)c3c(F)cccc3F)C(=O)OCC)cc2)c(OC)c1 [Example 10, N-(2,6-Difluorobenzoyl)-4-(2,6-dimethoxy-4-ethoxymethylphenyl)-L-phenylalanine ethyl ester]	87 to 89 °C
CCOCc1cc(OC)c(-c2ccc(C[C@H](NC(=O)c3c(F)cccc3Cl)C(=O)O)cc2)c(OC)c1 [Example 20, N-(2-Chloro-6-fluorobenzoyl)-4-(2,6-dimethoxy-4-ethoxymethylphenyl)-L-phenylalanine]	182 to 184 °C
COCc1cc(OC)c(-c2ccc(C[C@H](NC(=O)c3c(F)cccc3Cl)C(=O)O)cc2)c(OC)c1 [Example 23, N-(2-Chloro-6-fluorobenzoyl)-4-(2,6-dimethoxy-4-methoxymethylphenyl)-L-phenylalanine]	170 to 175 °C
CCOCCc1cc(OC)c(-c2ccc(C[C@H](NC(=O)c3c(F)cccc3F)C(=O)O)cc2)c(OC)c1 [Example 31, N-(2,6-Difluorobenzoyl)-4-[2,6-dimethoxy-4-(2-ethoxyethyl)phenyl]-L-phenylalanine]	63 to 70 °C
